From PubChem BioAssay AID256 (DTP/NCI, 2004) come the findings set out here.

Values joined by “and” are separate entries in the source; they are usually repeats but may differ in a detail not shown here. Equal values may be shown once. Toxic doses and inconclusive results are not listed.

In this experiment the test system is CD2F1 mice, L1210 leukemia ip, survival T/C. Description: NCI In Vivo Anticancer Drug Screen. Data for tumor model L1210 Leukemia (intraperitoneal) in CD2F1 (CDF1) mice. The settings on record: higher = longer survival. In short, it runs like this:
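In this screen, transplantable tumors were grown in mice given either the compound or its vehicle. Results were expressed as the treated measurement relative to the control measurement.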

[1] abbreviates: endpoint: mean survival time, dose: 100.0 mg/kg/injection, schedule: Q01DX009 (ip), vehicle: saline with Tween-80.
[2] abbreviates: endpoint: mean survival time, dose: 100.0 mg/kg/injection, schedule: Q04DX003 (ip), vehicle: saline with Tween-80.
[3] abbreviates: endpoint: mean survival time, dose: 200.0 mg/kg/injection, schedule: Q01DX009 (ip), vehicle: saline with Tween-80.
Setting [4] is: endpoint: mean survival time, dose: 200.0 mg/kg/injection, schedule: Q04DX003 (ip), vehicle: saline with Tween-80.
Setting [5] is: endpoint: mean survival time, dose: 400.0 mg/kg/injection, schedule: Q01DX009 (ip), vehicle: saline with Tween-80.
Setting [6] is: endpoint: mean survival time, dose: 400.0 mg/kg/injection, schedule: Q04DX003 (ip), vehicle: saline with Tween-80.
[7] abbreviates: endpoint: mean survival time, dose: 25.0 mg/kg/injection, schedule: Q04DX002 (ip), vehicle: saline with Tween-80.
Where [8] appears, read: endpoint: mean survival time, dose: 50.0 mg/kg/injection, schedule: Q04DX002 (ip), vehicle: saline with Tween-80.
Where [9] appears, read: endpoint: mean survival time, dose: 100.0 mg/kg/injection, schedule: Q04DX002 (ip), vehicle: saline with Tween-80.
Where [10] appears, read: endpoint: mean survival time, dose: 100.0 mg/kg/injection, schedule: Q04DX003 (ip), vehicle: other.
Setting [11] is: endpoint: mean survival time, dose: 200.0 mg/kg/injection, schedule: Q04DX003 (ip), vehicle: other.
[12] abbreviates: endpoint: mean survival time, dose: 400.0 mg/kg/injection, schedule: Q04DX003 (ip), vehicle: other.
The mark [13] stands for this setting: endpoint: mean survival time, dose: 50.0 mg/kg/injection, schedule: Q01DX009 (ip), vehicle: saline with Tween-80.
The mark [14] stands for this setting: endpoint: mean survival time, dose: 100.0 mg/kg/injection, schedule: Q01DX001 (ip), vehicle: saline.
The mark [15] stands for this setting: endpoint: mean survival time, dose: 200.0 mg/kg/injection, schedule: Q01DX001 (ip), vehicle: saline.
The mark [16] stands for this setting: endpoint: mean survival time, dose: 75.0 mg/kg/injection, schedule: Q01DX001 (ip), vehicle: saline.
Setting [17] is: endpoint: mean survival time, dose: 150.0 mg/kg/injection, schedule: Q01DX001 (ip), vehicle: saline.

Regarding `C=CCNS(=O)(=O)c1ccc(C)cc1`, the T/C was 93 % of control under setting [1]; 98 % of control under setting [2]; 100 % of control under setting [3]; 98 % of control under setting [4]; 90 % of control under setting [5]; 94 % of control under setting [6].

Consider `O=C(c1ccc(Cl)cc1)c1no[n+]([O-])c1C(=O)c1ccc(Cl)cc1`, for which the T/C was 94 % of control under setting [1]; 107 % of control under setting [2]; 100 % of control under setting [3]; 95 % of control under setting [4]; 94 % of control under setting [5]; 95 % of control under setting [6].

On to `[Cl][Gd]([Cl])[Cl]`, for which the T/C under setting [1] is 92 % of control and the T/C under setting [3] was 94 % of control.

Regarding `CCOc1ccccc1C=C(C#N)C#N`, the T/C was 96 % of control under setting [7], 96 % of control under setting [8] and 93 % of control under setting [9].

Take `COCC1OC(OC)C(OC)C(OC)C1OC` (stereo not given): the T/C was 94 % of control under setting [1], 102 % of control under setting [3] and 105 % of control under setting [5].

Turning to `C/[N+]([O-])=C/C1OC(n2ccc(=O)[nH]c2=O)C2OC(C)(C)OC12` (stereo not given), the T/C was 106 % of control (endpoint: median survival time, dose: 21.38 mg/kg/injection, schedule: Q01DX005 (ip), vehicle: saline); 100 % of control (endpoint: median survival time, dose: 42.75 mg/kg/injection, schedule: Q01DX005 (ip), vehicle: saline); 100 % of control (endpoint: median survival time, dose: 85.5 mg/kg/injection, schedule: Q01DX005 (ip), vehicle: saline); 107 % of control (endpoint: median survival time, dose: 171.0 mg/kg/injection, schedule: Q01DX005 (ip), vehicle: saline).

Consider `COc1cc2c(c(OC)c1OC)-c1ccc(OC)c(=O)cc1[C@@H](N(C)C(C)=O)CC2`, for which the T/C runs as follows: (endpoint: mean survival time, dose: 0.06 mg/kg/injection, schedule: Q01DX005 (ip), vehicle: Klucel (hydroxypropylcellulose) (HPC)) 103 % of control; (endpoint: mean survival time, dose: 0.13 mg/kg/injection, schedule: Q01DX005 (ip), vehicle: Klucel (hydroxypropylcellulose) (HPC)) 104 % of control; (endpoint: mean survival time, dose: 0.25 mg/kg/injection, schedule: Q01DX005 (ip), vehicle: Klucel (hydroxypropylcellulose) (HPC)) 110 % of control; (endpoint: mean survival time, dose: 1.0 mg/kg/injection, schedule: Q01DX005 (ip), vehicle: Klucel (hydroxypropylcellulose) (HPC)) 150 % of control.

As to `CCCCCCCCCCCCNC(=O)OCCN(CCOC(=O)NCCCCCCCCCCCC)C(=O)COc1ccc(Cl)cc1`, the T/C under setting [10] was 86 % of control, the T/C under setting [11] is 91 % of control and the T/C under setting [12] was 93 % of control.

`COc1cccc2c1CCN1C3=C(CC(OC)CC3)C(=O)CC21` (stereo not given): the T/C under setting [7] is 93 % of control, the T/C under setting [8] is 104 % of control, the T/C under setting [9] is 96 % of control and the T/C under setting [2] is 101 % of control.

As to `N#CCCOCC(COCCC#N)OCCC#N`, the T/C was 97 % of control and 103 % of control (endpoint: mean survival time, dose: 25.0 mg/kg/injection, schedule: Q01DX009 (ip), vehicle: saline with Tween-80); 98 % of control and 103 % of control under setting [13]; 97 % of control and 110 % of control under setting [1]; 89 % of control and 103 % of control under setting [3].

Turning to `C1N2CN3CN1CN(C2)C3.[Cl][Pt][Cl]`, the T/C runs as follows: (endpoint: mean survival time, dose: 25.0 mg/kg/injection, schedule: Q04DX003 (ip), vehicle: saline with Tween-80) 123 % of control; (endpoint: mean survival time, dose: 50.0 mg/kg/injection, schedule: Q04DX003 (ip), vehicle: saline with Tween-80) 101 % of control; under setting [2], 98 % of control.

As to `CCCCCCCC(=O)Nc1ccccc1CC`, the T/C reads like this: under setting [1], 94 % of control; under setting [3], 100 % of control; under setting [5], 102 % of control.

For `CCCCCCCCCCC(=O)CCCCCC`, the T/C was 89 % of control under setting [10], 92 % of control under setting [11] and 118 % of control under setting [12].

Take `C/C=C/C(O)C1CCCCC1` (stereo not given): the T/C by setting is: under setting [13], 103 % of control; under setting [1], 98 % of control; under setting [3], 107 % of control.

Regarding `Nc1ccc(C(=O)Nc2ccc(S(=O)(=O)F)cc2)cc1`, the T/C by setting is: under setting [14], 100 % of control; under setting [15], 96 % of control; (endpoint: mean survival time, dose: 400.0 mg/kg/injection, schedule: Q01DX001 (ip), vehicle: saline) 102 % of control.

Take `OC1C2COC(O2)C(O)C1O` (stereo not given): the T/C (endpoint: mean survival time, dose: 100.0 mg/kg/injection, schedule: Q01DX009 (ip), vehicle: saline) was 98 % of control; the T/C (endpoint: mean survival time, dose: 200.0 mg/kg/injection, schedule: Q01DX009 (ip), vehicle: saline) is 101 % of control; the T/C (endpoint: mean survival time, dose: 400.0 mg/kg/injection, schedule: Q01DX009 (ip), vehicle: saline) is 98 % of control.

Regarding `O=C1c2ccccc2C(=O)N1c1c2ccccc2cc2ccccc12`, the T/C is, setting by setting: under setting [1], 95 % of control; under setting [3], 101 % of control; under setting [5], 90 % of control.

As to `CCCCCCCCC(Sc1nn(C2OC(COC(=O)c3ccccc3)C(OC(=O)c3ccccc3)C2OC(=O)c2ccccc2)c(=O)[nH]c1=O)C(=O)OCC` (stereo not given), the T/C (endpoint: mean survival time, dose: 12.5 mg/kg/injection, schedule: Q01DX005 (ip), vehicle: distilled water + Tween-80) is 101 % of control; the T/C (endpoint: mean survival time, dose: 25.0 mg/kg/injection, schedule: Q01DX005 (ip), vehicle: distilled water + Tween-80) is 100 % of control; the T/C (endpoint: mean survival time, dose: 50.0 mg/kg/injection, schedule: Q01DX005 (ip), vehicle: distilled water + Tween-80) is 100 % of control; the T/C (endpoint: mean survival time, dose: 100.0 mg/kg/injection, schedule: Q01DX005 (ip), vehicle: distilled water + Tween-80) is 97 % of control; the T/C (endpoint: mean survival time, dose: 200.0 mg/kg/injection, schedule: Q01DX005 (ip), vehicle: distilled water + Tween-80) is 97 % of control.

Regarding `CC(C)(C)C(=O)C(Br)S(=O)(=O)C(Br)(Br)C(=O)C(C)(C)C` (stereo not given), the T/C reads like this: under setting [1], 95 % of control; under setting [3], 97 % of control; under setting [5], 95 % of control.

Turning to `CO[C@H](/C(C)=C/C=C/C(C)=C/c1coc(C)n1)[C@H](C)[C@H]1C[C@@H](O)[C@@]2(C)O[C@H]2/C=C/[C@@H](C)[C@@H]2C[C@@H](CC(=O)O2)C[C@H]2O[C@@H]2C(=O)O1`, the T/C is, setting by setting: (endpoint: median survival time, dose: 0.5 mg/kg/injection, schedule: Q01DX009 (ip), vehicle: Klucel (hydroxypropylcellulose) (HPC)) 112 % of control; (endpoint: median survival time, dose: 20.0 micrograms/kg/injection, schedule: Q01DX009 (ip), vehicle: Klucel (hydroxypropylcellulose) (HPC)) 114 % of control; (endpoint: median survival time, dose: 40.0 micrograms/kg/injection, schedule: Q01DX009 (ip), vehicle: Klucel (hydroxypropylcellulose) (HPC)) 123 % of control and 104 % of control; (endpoint: median survival time, dose: 80.0 micrograms/kg/injection, schedule: Q01DX009 (ip), vehicle: Klucel (hydroxypropylcellulose) (HPC)) 116 % of control; (endpoint: median survival time, dose: 160.0 micrograms/kg/injection, schedule: Q01DX009 (ip), vehicle: Klucel (hydroxypropylcellulose) (HPC)) 114 % of control.

Consider `CC(C)NCCO`, for which the T/C is, setting by setting: under setting [16], 98 % of control; under setting [14], 97 % of control; under setting [17], 100 % of control; under setting [15], 97 % of control.

In the case of `COc1ccc(-c2c(C(=O)NCCc3ccccc3)[nH]c(-c3ccccc3)c2-c2ccccc2)cc1`, the T/C reads like this: under setting [16], 95 % of control; under setting [17], 98 % of control.

As for `C=C(C)C1CNC(C(=O)O)C1CC(=O)O` (stereo not given), the T/C runs as follows: (endpoint: mean survival time, dose: 6.25 mg/kg/injection, schedule: Q04DX003 (ip), vehicle: saline sonified) 97 % of control; (endpoint: mean survival time, dose: 12.5 mg/kg/injection, schedule: Q04DX003 (ip), vehicle: saline sonified) 95 % of control; (endpoint: mean survival time, dose: 25.0 mg/kg/injection, schedule: Q04DX003 (ip), vehicle: saline sonified) 109 % of control.

Turning to `Cc1ccc(S(=O)(=O)N/N=C2/C=C3C/C(=N\NS(=O)(=O)c4ccc(C)cc4)C=C3C2)cc1`, the T/C by setting is: under setting [13], 93 % of control; under setting [1], 89 % of control; under setting [3], 89 % of control.

`CN(CC1CCCC1)C1CCCCC1`: the T/C under setting [14] is 98 % of control.

Turning to `O=C(Oc1ccccc1Cl)c1ccccc1`, the T/C reads like this: under setting [1], 100 % of control; under setting [2], 105 % of control; under setting [3], 98 % of control; under setting [4], 100 % of control; under setting [5], 108 % of control; under setting [6], 111 % of control.

In the case of `COc1ccc(C(C)c2ccccc2)cc1` (stereo not given), the T/C runs as follows: under setting [1], 97 % of control; under setting [3], 95 % of control; under setting [5], 97 % of control.
